Where two headings read alike, the source gives them in different places.
Experiments:
tankyrase 1 (TNKS 1) = molecular target: T1, tankyrase 1 (TNKS 1) (Homo sapiens, UniProt O95271); experiment: Tankyrase inhibitory activity test (ELISA, self-polyADP ribosylation), tankyrase 1; assay type: biochemical; details: self-polyADP ribosylation
T1 construct: 1,024-1,327aa; made in house; host or cells: cell-free protein synthesis system
How it was run: (§1)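 Flag-tagged TNKS1 (1,024-1,327aa, SAM+PARP) and TNKS2 (613-1,116aa, ANK5+SAM+PARP) were made cell-free and captured overnight at 4 °C on anti-FLAG M2 plates. After 10 min compound preincubation in Tris pH 8.0/MgCl2/DTT buffer, NAD (225 μM) plus biotin-NAD (25 μM) solution was added for 45 min at 30 °C. Auto-PARylation was read by streptavidin-HRP chemiluminescence, giving IC50 from residual activity.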

[1] = system: human colorectal cancer cell line, COLO-320DM; experiment: Cell proliferation inhibitory activity test (Celltiter-Glo Luminescent Cell Viability Assay); assay type: cell-based; details: COLO-320DM cells, 96 hours
How it was run: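 Cells grown in RPMI-1640 with 10% FBS and 2 mM glutamine, seeded overnight, then exposed to compound (1% DMSO final) for 96 h at 37° C., 5% CO2. Viability read by ATP luminescence; GI50 is the concentration reducing cell growth to 50% of DMSO control.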

tankyrase 2 (TNKS 2) = molecular target: T2, tankyrase 2 (TNKS 2) (Homo sapiens, UniProt Q9H2K2); experiment: Tankyrase inhibitory activity test (ELISA, self-polyADP ribosylation), tankyrase 2; assay type: biochemical; details: self-polyADP ribosylation
T2 construct: 613-1, 116aa; made in house; host or cells: cell-free protein synthesis system
How it was run: as §1

[2] = tankyrase 1, ELISA, read-out: TNKS1 inhibitory activity (IC50 class)
[3] = read-out: COLO-320 DM cell proliferation inhibitory activity (GI50 class)
[4] = tankyrase 2, ELISA, read-out: TNKS2 inhibitory activity (IC50 class)
[5] = ELISA, class symbols, read-out: TNKS1 (inhibitory activity against tankyrase 1, IC50 value)
[6] = class symbols, read-out: COLO-320 DM (cell proliferation inhibitory activity, GI50 value)
[7] = ELISA, class symbols, read-out: TNKS2 (inhibitory activity against tankyrase 2, IC50 value)

T1 sequence (O95271 1024-1327): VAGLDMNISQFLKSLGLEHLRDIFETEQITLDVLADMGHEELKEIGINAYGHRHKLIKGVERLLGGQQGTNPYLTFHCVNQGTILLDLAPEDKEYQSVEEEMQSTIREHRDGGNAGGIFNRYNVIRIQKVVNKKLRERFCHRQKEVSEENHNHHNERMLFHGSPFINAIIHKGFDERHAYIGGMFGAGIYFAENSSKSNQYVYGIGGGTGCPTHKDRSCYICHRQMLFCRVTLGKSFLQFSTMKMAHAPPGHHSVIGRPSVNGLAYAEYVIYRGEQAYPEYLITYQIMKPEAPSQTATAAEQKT
T2 sequence (Q9H2K2 613-1166): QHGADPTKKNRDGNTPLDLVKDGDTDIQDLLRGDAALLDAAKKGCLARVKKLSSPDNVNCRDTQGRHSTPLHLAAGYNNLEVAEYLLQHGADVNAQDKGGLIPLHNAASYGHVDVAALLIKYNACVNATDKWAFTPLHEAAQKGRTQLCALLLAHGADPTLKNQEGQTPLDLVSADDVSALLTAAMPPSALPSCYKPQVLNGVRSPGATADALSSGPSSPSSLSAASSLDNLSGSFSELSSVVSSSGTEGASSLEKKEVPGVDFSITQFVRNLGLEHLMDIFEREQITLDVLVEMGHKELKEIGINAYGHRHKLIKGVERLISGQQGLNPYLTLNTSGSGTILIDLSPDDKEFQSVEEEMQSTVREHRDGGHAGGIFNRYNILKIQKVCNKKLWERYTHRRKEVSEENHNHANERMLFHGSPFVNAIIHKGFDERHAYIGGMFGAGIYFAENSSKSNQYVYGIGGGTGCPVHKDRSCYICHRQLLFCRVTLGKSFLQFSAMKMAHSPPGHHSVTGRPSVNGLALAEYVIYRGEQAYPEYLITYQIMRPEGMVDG

| Compound | IC50 (tankyrase 1 (TNKS 1); [2]) | GI50 [1, 3] | IC50 (tankyrase 2 (TNKS 2); [4]) | IC50 (tankyrase 1 (TNKS 1); [5]) | GI50 [1, 6] | IC50 (tankyrase 2 (TNKS 2); [7]) |
| --- | --- | --- | --- | --- | --- | --- |
| CN1CCCc2c1nc(N1CCC3(CC1)C(=O)N(CCO)c1cc(OCCO)cc(F)c13)[nH]c2=O [Example 381, 4-fluoro-6-(2-hydroxy-thoxy)-1-(2-hydroxyethyl)-1′-(8-methyl-4-oxo-3,4,5,6,7,8-hexahydropyrido [2,3-d]pyrimidin-2-yl)spiro [indoline-3,4′-piperidin]-2-one] | < 20 nM | 100 to 600 nM | < 20 nM | – | – | – |
| CCN1CCCc2c1nc(N1CCC3(CC1)C(=O)N(CCO)c1cc(F)cc(F)c13)[nH]c2=O [Example 382, 1′-(8-ethyl-4-oxo-3,4,5,6,7-hexahydropyrido-[2,3-d]pyrimidin-2-yl)-4,6-difluoro-1-(2-hy-droxyethyl)spiro [indoline-3,4′-piperidin]-2-one] | < 20 nM | 100 to 600 nM | < 20 nM | – | – | – |
| COCCOc1cc(F)c2c(c1)N(CCO)C(=O)C21CCN(c2nc3c(c(=O)[nH]2)CCCN3C)CC1 [Example 383, 4-fluoro-1-(2-hydroxy-ethyl)-6-(2-methoxyethoxy-1′-(8-methyl-4-oxo-3,4,5,6,7,8-hexahydropyrido [2,3-d]pyrimidin-2-yl))spiro [indoline-3,4′-piperidin]-2-one] | < 20 nM | 100 to 600 nM | < 20 nM | – | – | – |
| CN1CCCc2c1nc(N1CCC3(CC1)C(=O)N(CCO)c1cc(O)cc(F)c13)[nH]c2=O [Example 384, 4-fluoro-6-hydroxy-1-(2-hydroxyethyl)-1′-(8-methyl-4-oxo-3,4,5,6,7,8-hexahydropyrido [2,3-d]pyrimidin-2-yl) spiro[indoline-3,4′-piperidin]-2-one] | < 20 nM | 100 to 600 nM | < 20 nM | – | – | – |
| CN1CCCc2c1nc(N1CCC3(CC1)C(=O)N(CCO)c1cc(OCCN4CCOCC4)cc(F)c13)[nH]c2=O [Example 386, 4-fluoro-1-(2-hydroxy-ethyl)-1′-(8-methyl-4-oxo-3,4,5,6,7,8-hexahydropyrido [2,3-d]pyrimidin-2-yl)-6-(2-morpholino-ethoxy)spiro [indoline-3,4′-piperidin]-2-one] | < 20 nM | 600 to 1000 nM | < 20 nM | – | – | – |
| CN1CCN(c2cc(F)c3c(c2)N(C)C(=O)C32CCN(c3nc4c(c(=O)[nH]3)CCCN4C)CC2)CC1 [Example 387, 4-fluoro-1-methyl-1′-(8-methyl-4-oxo-3,4,5,6,7,8-hexahydropyrido [2,3-d]pyrimidin-2-yl)-6-(4-methylpiperazin-1-yl)spiro [indoline-3,4′-piperidin]-2-one] | < 20 nM | < 100 nM | < 20 nM | – | – | – |
| CN1CCCc2c1nc(N1CCC3(CC1)C(=O)N(C)c1cc(OCC4COC4)cc(F)c13)[nH]c2=O [Example 388, 4-fluoro-1-methyl-1′-(8-methyl-4-oxo-3,4,5,6,7,8-hexahydropyrido [2,3-d]pyrimidin-2-yl)-6-(oxetan-3-ylmethoxy) spiro[indoline-3,4′-piperidin]-2-one] | < 20 nM | < 100 nM | < 20 nM | – | – | – |
| CN1CCCc2c1nc(N1CCC3(CC1)C(=O)N(C)c1cc(OC4CCOCC4)cc(F)c13)[nH]c2=O [Example 389, 4-fluoro-1-methyl-1′-(8-methyl-4-oxo-3,4,5,6,7,8-hexahydropyrido [2,3-d]pyrimidin-2-yl)-6-[(tetrahydro-2H-pyran-4-yl)oxy]spiro [indoline-3,4′-piperidin]-2-one] | < 20 nM | < 100 nM | < 20 nM | – | – | – |
| C[C@@H]1CN(c2cc(F)c3c(c2)N(C)C(=O)C32CCN(c3nc4c(c(=O)[nH]3)CCCN4C)CC2)C[C@H](C)N1 [Example 390, 6-(cis-3,5-dimethyl-piperazin-1-yl)-4-fluoro-1-methyl-1′-(8-methyl-4-oxo-3,4,5,6,7,8-hexahydropyrido [2,3-d]pyrimi-din-2-yl) spiro[indoline-3,4′-piperidin]-2(1H)-one] | – | – | – | < 20 nM | 100 to 600 nM | < 20 nM |
| CN1CCCc2c1nc(N1CCC3(CC1)C(=O)N(C)c1cc(N4CC5CCC(C4)N5)cc(F)c13)[nH]c2=O [Example 391, 6-(3,8-diazabicyclo [3.2.1]octan-3-yl)-4-fluoro-1-methyl-1′-(8-methyl-4-oxo-3,4,5,6,7,8-hexahydro-pyrido[2,3-d]pyrimidin-2-yl) spiro[indoline-3,4′-piperidin]-2(1H)-one] | – | – | – | < 20 nM | 600 to 1000 nM | < 20 nM |
| CN1CCCc2c1nc(N1CCC3(CC1)C(=O)N(C)c1cc(OCC(=O)O)cc(F)c13)[nH]c2=O [Example 392] | – | – | – | < 20 nM | 100 to 600 nM | < 20 nM |
| CN1CCCc2c1nc(N1CCC3(CC1)C(=O)N(C)c1cc(OCc4nnn[nH]4)cc(F)c13)[nH]c2=O [Example 393, 6-[(1H-tetrazol-5-yl)methoxy]-4-fluoro-1-methyl-1′-(8-methyl-4-oxo-3,4,5,6,7,8-hexahydropyrido [2,3-d]pyrimidin-2-yl)spiro [indoline-3,4′-piperidin]-2(1H)-one] | – | – | – | < 20 nM | 100 to 600 nM | < 20 nM |
| CN1CCCc2c1nc(N1CCC3(CC1)C(=O)N(C)c1cc(OCCN4CCCC4CO)cc(F)c13)[nH]c2=O (stereo not drawn) [Example 394, 4-fluoro-6-{2-[2-(hy-droxymethyl)pyrrolidin-1-yl]ethoxy}-1-methyl-1′-(8-methyl-4-oxo-3,4,5,6,7,8-hexahydropyrido [2,3-d]pyrimidin-2-yl)spiro [indoline-3,4′-piperidin]-2(1H)-one] | – | – | – | < 20 nM | 600 to 1000 nM | < 20 nM |
| CN1CCCc2c(O)nc(N3CCC4(CC3)OC(=O)c3cc(OCCN5CCCC5)cc(F)c34)nc21 [Example 395, 4-fluoro-1′-(4-hydroxy-8-methyl-6,7-dihydro-5H-pyrido[2,3-d]pyrimidin-2-yl)-6-(2-pyrrolidin-1-ylethoxy)spiro[2-benzofuran-3,4′-piperidine]-1-one] | – | – | – | < 20 nM | 600 to 1000 nM | < 20 nM |
| CN(C)CCOc1ccc(Cl)c2c1N(C)C(=O)C21CCN(c2nc3c(c(=O)[nH]2)CCCN3C)CC1 [Example 396, 4-chloro-7-[2-(dimethylamino)ethoxy]-1-methyl-1′-(8-methyl-4-oxo-3,4,5,6,7,8-hexahydro-pyrido [2,3-d]pyrimidin-2-yl)spiro [indoline-3,4′-piperidin]-2(1H)-one] | – | – | – | < 20 nM | 100 to 600 nM | < 20 nM |
| COCCN1CCN(c2cc(F)c3c(c2)N(C)C(=O)C32CCN(c3nc4c(c(=O)[nH]3)CCCN4C)CC2)CC1 [Example 397, 4-fluoro-6-(4-(2-methoxy-ethyl)piperazin-1-yl)-1-methyl-1′-(8-methyl-4-oxo-3,4,5,6,7,8-hexahydro-pyrido [2,3-d]pyrimidin-2-yl) spiro[indoline-3,4′-piperidin]-2(1H)-one] | – | – | – | 20 to 200 nM | 100 to 600 nM | 20 to 200 nM |
| CN1CCCc2c1nc(N1CCC3(CC1)C(=O)N(C)c1cc(N4CCN(C5COC5)CC4)cc(F)c13)[nH]c2=O [Example 398, 4-fluoro-1-methyl-1′-(8-methyl-4-oxo-3,4,5,6,7,8-hexahydro-pyrido [2,3-d]pyrimidin-2-yl)-6-(4-(oxetan-3-yl)piperazin-1-yl)spiro [indoline-3,4′-piperidin]-2(1H)-one] | – | – | – | < 20 nM | 100 to 600 nM | < 20 nM |
| CN1CCCc2c1nc(N1CCC3(CC1)C(=O)N(CC(F)(F)F)c1cc(OCCO)cc(F)c13)[nH]c2=O [Example 399, 4-fluoro-6-(2-hydroxy-ethoxy)-1′-(8-methyl-4-oxo-3,4,5,6,7,8-hexahydro-pyrido [2,3-d]pyri-midin-2-yl)-1-(2,2,2-trifluoroethyl) spiro [indoline-3,4′-piperidin]-2(1H)-one] | – | – | – | < 20 nM | 100 to 600 nM | < 20 nM |
| CN(C)CCOc1cc(F)c2c(c1)N(CC(F)(F)F)C(=O)C21CCN(c2nc3c(c(=O)[nH]2)CCCN3C)CC1 [Example 400, 6-[2-(di-methylamino)ethoxy]-4-fluoro-1′-(8-methyl-4-oxo-3,4,5,6,7,8-hexahydro-pyrido [2,3-d]pyrimidin-2-yl)-1-(2,2,2-trifluoroethyl) spiro[indoline-3,4′-piperidin]-2(1H)-one] | – | – | – | 20 to 200 nM | 100 to 600 nM | 20 to 200 nM |
| CN(C)CCOc1ccc(F)c2c1N(C)C(=O)C21CCN(c2nc3c(c(=O)[nH]2)CCCN3C)CC1 [Example 401, 7-[2-(dimethylamino)ethoxy]-4-fluoro-1′-(4-hy-droxy-8-methyl-6,7-di-hydro-5H-pyrido[2,3-d]pyrimidin-2-yl)-1-methyl spiro[indole-3,4′-piperidin]-2-one] | – | – | – | < 20 nM | 100 to 600 nM | < 20 nM |
| CN1CCN(c2cc(F)c3c(c2)N(CC#N)C(=O)C32CCN(c3nc4c(c(=O)[nH]3)CCCN4C)CC2)CC1 [Example 402, [4-fluoro-1′-(8-methyl-4-oxo-3,4,5,6,7,8-hexahydropyrido [2,3-d]py-rimidin-2-yl)-6-(4-methyl-piperazin-1-yl)-2-oxo-spiro[indoline-3,4′-piperidin]-1(2H)-yl] acetonitrile] | – | – | – | 20 to 200 nM | 100 to 600 nM | < 20 nM |
